In brackets after ≈: the same amount, converted by molar mass.
Experiments:
[1] = system: IL-8 in THP-1 induced by MDP; experiment: THP-1 cell assay, IL-8 ELISA after MDP; format: cell-based; details: Homo sapiens; test compounds 10 nM; THP-1, MDP induced
Procedure: Acute monoblastic and monocytic leukemia (THP-1) was obtained from ATCC (item NO. TIB-202™). The temperature of the sterile incubator is 37˜38° C., the osmotic pressure is 260˜320 mmol/L, the pH range is 7.2˜7.4, and the ratio of carbon dioxide gas is 5%.
Cells were seeded in 96-well plates. After an hour, cells were incubated with test compounds for 2 hours. MDP (10 μL) was added and incubated for 6 hours. The samples were centrifuged (3000 rmp/min) for 5 minutes. The concentration of IL-8 in the supernatants was detected by IL-8 ELISA.

[2] = Pharmacokinetic evaluation in mice; format: in vivo; details: for AUC / Vd / clearance / half-life / Cmax / Tmax: male, mouse, plasma
Procedure: The mice pharmacokinetic characteristics of compounds were tested by standard protocols. The candidate compounds were made into clear solution for single intravenous injection (i.v.) and suspension for oral administration (p.o.). Intravenous vehicle is 5% DMSO+95% Saline while oral vehicle is 0.5% CMCNa. The experiment used 48 male mice and 24 mice for intravenous at a dose of 2 mg/kg. Plasma samples were collected at 0 h (before dosing) and 0.083 h, 0.25 h, 0.5 h, 1 h, 2 h, 4 h, 8 h, 24 h after dosing. Another 24 mice were orally administrated with a dose of 10 mg/kg. Plasma samples were collected at 0 h (before dosing) and 0.25 h, 0.5 h, 1 h, 2 h, 4 h, 6 h, 8 h, 24 h after dosing.
Blood samples were placed in tubes containing K2-EDTA and stored on ice until centrifuged. The blood samples were centrifuged at 6800 g for 6 minutes at 2-8° C. within 1 h after collected and stored frozen at approximately −80° C.
The analytical results were confirmed using quality control samples for intra-assay variation. The accuracy of >66.7% of the quality control samples and 50% of all QC samples at each concentration level were between 80-120% of the known value(s).
Standard set of parameters including Area Under the Curve (AUC(0-t) and AUC(0-∞)), elimination half-live (T1/2), maximum plasma concentration (Cmax), time to reach maximum plasma concentration (Tmax) were calculated using noncompartmental analysis modules in FDA certified pharmacokinetic program Phoenix WinNonlin 7.0 (Pharsight, USA) by the Study Director.

[3] = Protein binding test (dialysis), dog; format: in vitro ADME; details: for fraction unbound at 5 h, 1 μM: dog plasma
Procedure: (§1) • 1. Spiking Solutions of Test and Reference Compounds • 1.1 Solution A (0.5 mM): Add 10 μL of 10 mM stock solution into 190 μL of DMSO. • 1.2 Solution B (0.02 mM): Add 8 μL of Solution A into 192 μL of 0.05 M sodium phosphate buffer. The final DMSO concentration in Solution B is 4%. • 2. Preparation of Test and Reference Compounds • 2.1 Preload a 96-well plate with 380 μL aliquots of plasma in the wells designated for plasma and buffer, respectively. • 2.2 Spike 20 μL of Solution B (0.02 mM of test and reference compounds) into the pre-loaded plasma in the 96-well plate. The final test concentration is 1 μM containing 0.2% DMSO. • 3. Dialysis Sample Loading • 3.1 Preparing plasma against buffer system (duplicate): Apply aliquots of 100 μL of blank dialysis buffer to the receiver side of dialysis chambers. Then apply aliquots of 100 μL of the plasma spiked with test and reference compounds to the donor side of the dialysis chambers. • 3.2 Preparing T0 plasma samples for initial concentrations (duplicate): • 3.2.1 Aliquot 25 μL of the plasma spiked with test and reference compounds into a 96-well sample preparation plate as T0 plasma samples • 3.2.2 Mix the aliquots with same volume of blank buffer (50:50, v/v). • 3.2.3 Quench the samples with 200 μL of acetonitrile containing internal standard (IS). • 3.3 Cover the dialysis block with a plastic lid and place the entire apparatus in a shaker (60 rpm) for 5 hours at 37° C. • 3.4 Preparing dialyzed samples after 5-hour incubation: • 3.4.1 Aliquot 25 μL from both the donor sides and receiver sides of the dialysis apparatus into new sample preparation plates and mix the aliquots with same volume of opposite matrixes (blank buffer to plasma and vice versa). • 3.4.2 Quench the samples with 200 μL acetonitrile containing internal standard (IS). Vortex all the samples (from 0 h and 5 h) at 600 rpm for 10 min followed by centrifugation at 5594 g for 15 minutes (ThermoMultifuge×3R). • 3.4.3 Transfer 50 μL of the supernatants to a new 96-well plate and mix the samples with 50 μL of Milli-Q water. Cover the sample plate and store it in a freezer (−20° C.) until LC/MS/MS analysis.

[4] = system: MDP induced peritonitis; experiment: MDP (muramyl dipeptide) induced peritonitis, IL-6 by ELISA; format: in vivo; details: mice, gavage, same dosage as GSK2983559 (10 mg/kg), 3 hours post MDP
Procedure: Mice were divided into four groups Including normal group, DMSO group, positive control group (GSK2983559) and compound group. Mice were dosed by gavage with either GSK2983559 at 10 mg/kg or candidate compounds at 3, 10 mg/kg 30 minutes prior to MDP injection (100 μg/mouse, ip). At 3 hours post MDP administration, the blood sample was collected from ocular vein after anesthesia. IL-6 levels were detected by ELISA.

[5] = Thermodynamic solubility test; format: physicochemical; details: thermodynamic from solid; FaSSIF pH 6.5, thermodynamic
Procedure: • a. Add assay buffer into compound powder to make 4 mg/mL solution. • b. Sample tubes are shaken for 1 hour (1000 rpm), then equilibrated over night at room temperature. • c. Samples are centrifuged (10 min-12000 rpm) to precipitate un-dissolved particles. • d. Supernatants are transferred to new tubes. • e. Concentrations of the supernatants after centrifugation are determined by LCMSMS detection.

[6] = Protein binding test (dialysis), human; format: in vitro ADME; details: for fraction unbound at 5 h, 1 μM: human plasma
Procedure: as §1

With `COc1cc2nccc(Nc3ccc4scnc4c3)c2cc1P(C)(C)=O` [A6] the inhibition at 0.01 µM [1] was 50%, the “plasma exposure and bioavailability in mice (in words)” value [2] was “excellent plasma exposure and bioavailability” and the AUC ([2]; iv, i.v. 2 mg/kg) was 2990 ng·h/mL. It also gave a Vd ([2]; iv, i.v. 2 mg/kg) of 1.1 L/kg, a clearance ([2]; iv, i.v. 2 mg/kg) of 11.1 mL/min/kg and a half-life ([2]; iv, i.v. 2 mg/kg) of 1.2 h. For the same compound, the AUC ([2]; po, p.o. 10 mg/kg) was 19200 ng·h/mL, the Cmax ([2]; po, p.o. 10 mg/kg) was 9610 ng/mL and the Tmax ([2]; po, p.o. 10 mg/kg) was 0.5 h. For the same compound, the F ([2]; p.o. 10 mg/kg) was 129%, the fraction unbound at 5 h, 1 μM [3] was 0.138 and the “inhibition of the level of IL-6 compared with positive control (in words)” value [4] was “more effectively than positive control GSK2983559”. For the same compound, the solubility [5] was 6.12 mM (≈ 2340 µg/mL) and the fraction unbound at 5 h, 1 μM [6] was 0.124.
For `CP(C)(=O)c1cc2c(Nc3ccc4scnc4c3)ccnc2cc1OC1COC1` [A16], the fraction unbound at 5 h, 1 μM [3] was 0.145 and the fraction unbound at 5 h, 1 μM [6] was 0.195.
In the case of `CP(C)(=O)c1cc2c(Nc3ccc4scnc4c3)ccnc2cc1O[C@H]1CCOC1` [A14], the fraction unbound at 5 h, 1 μM [3] is reported as 0.165 and the fraction unbound at 5 h, 1 μM [6] is reported as 0.177.
`CP(C)(=O)c1cc2c(Nc3ccc4scnc4c3)ccnc2cc1OCCO` [A7, (4-(benzo[d]thiazol-5-ylamino)-7-(2-hydroxyethoxy)quinolin-6-yl)dimethylphosphine oxide] showed an inhibition at 0.01 µM [1] of 25% and a solubility [5] of 5.31 mM (≈ 2200 µg/mL).
Work on `CP(C)(=O)c1cc2c(Nc3ccc4scnc4c3)ccnc2cc1O[C@@H]1CCOC1` [A15] yielded a fraction unbound at 5 h, 1 μM [3] of 0.129 and a fraction unbound at 5 h, 1 μM [6] of 0.188.
`COCCOc1cc2nccc(Nc3ccc4scnc4c3)c2cc1P(C)(C)=O` [A8] showed an inhibition at 0.01 µM [1] of 51% and a solubility [5] of 1.04 mM (≈ 444 µg/mL).
For `CC1(COc2cc3nccc(Nc4ccc5scnc5c4)c3cc2P(C)(C)=O)COC1` [A9], the inhibition at 0.01 µM [1] was 55% and the solubility [5] was 0.283 mM (≈ 128 µg/mL).
For `CP(C)(=O)c1cc2c(Nc3ccc4scnc4c3)ccnc2cc1OC(F)(F)F` [A24], the “plasma exposure and bioavailability in mice (in words)” value [2] was “excellent plasma exposure and bioavailability”, the AUC ([2]; iv, i.v. 2 mg/kg) was 22600 ng·h/mL and the Vd ([2]; iv, i.v. 2 mg/kg) was 0.27 L/kg. For the same compound, the clearance ([2]; iv, i.v. 2 mg/kg) was 1.5 mL/min/kg, the half-life ([2]; iv, i.v. 2 mg/kg) was 2.2 h and the AUC ([2]; po, p.o. 10 mg/kg) was 89100 ng·h/mL. It also gave a Cmax ([2]; po, p.o. 10 mg/kg) of 16200 ng/mL, a Tmax ([2]; po, p.o. 10 mg/kg) of 0.8 h and an F ([2]; p.o. 10 mg/kg) of 79%. The “protein binding in dog (in words)” value ([3]; dog) was “high protein binding”, the fraction unbound at 5 h, 1 μM [3] was 0.01 and the “inhibition of the level of IL-6 compared with positive control (in words)” value [4] was “more effectively than positive control GSK2983559”. For the same compound, the “protein binding in human (in words)” value ([6]; human) was “high protein binding” and the fraction unbound at 5 h, 1 μM [6] was 0.013.

Source: patent publication US20240190904A1, “Heteroaryl compounds as inhibitors of RIP2 kinase, composition and application thereof” (Accro Bioscience (HK) Limited, priority 2021, published 2024)
